Measured values taken from patent publication US20010011146A1, “NEUROPROTECTIVE COMPOUNDS AND USES THEREOF” (priority 1997, published 2001).
Entries after “also recorded” stand apart in the source; their conditions may differ. Like-named read-outs stand apart in the source and are kept apart here.

Assays:
[1] = tested on: CA1 hippocampal neurons; experiment: Four-vessel occlusion (4-VO) ischemia, CA1 neuronal density measurement; type: in vivo, male Wister rats
Description: (§1) Four-vessel occlusion (“4-VO”) ischemia. All procedures regarding animals were in compliance with AALAC guidelines set forth in the PHS animal “Guide in the Care and Use of Laboratory Animals”. Animals (male Wister rats, 200-250 gr, Hill Top, Scottsdale) were anesthetized with a mixture of halothane (1%), oxygen, and nitrogen, and surgically prepared for 4-VO according to the method described by Pulsinell, W. A., et al., “Regional Cerebral Blood Flow and Glucose Metabolism Following Transient Forebrain Ischemia,” Ann. Neurol., 11:499-502 (1982), which is hereby incorporated by reference. Surgical procedures included placing reversible clasps around the common carotid arteries and placing a suture around the neck muscles to control collateral blood flow to the brain. Food was withheld overnight, but water was freely available. On the following day, 10 minutes of 4-VO ischemia was induced by tightening the clasps around the common carotid arteries and the suture. In order to minimize variability, the following criteria was set: loss of righting reflex and bilateral pupil dilation during the entire ischemic period, and 20±5 minutes of postischemic coma after 10 minutes of ischemia. Only animals that meet these criteria were included in the study. The body temperature of all animals was kept at 37.5±0.5° C. by a thermocouple-regulated heating lamp during ischemia and reperfusion until the animals regained consciousness and established thermo-homeostasis.
(§2) NAMDA administration. Animals subject to 10 minutes of ischemia randomly were divided into 4 groups. Animals received one of the following triple intraperitoneal injections: i) saline at 0, 0.5, and 2 hours, ii) NAMDA (10 mg/kg) at 0, 0.5, and 2 hours, iii) NAMDA at 1, 1.5, and 3 hours, and iv) NAMDA at 2, 2.5, and 4 hours of cerebral reperfusion. To examine whether NAMDA caused hypothermia, the animals' body temperatures were recorded for up to the first 4 hours of cerebral reperfusion. Sham-operated animals that underwent surgery and carotid manipulation were used as non-ischemic controls.
Tissue preparation. […] Some sections were […] on slides and stained with cresyl violet to measure neuronal density. […]
Cell density measurement. […] Neurons were counted in the frame if part or all of the nucleus was within the frame and not in contact with the left or bottom border of the frame. […] The number of neurons counted were divided by the total volume sampled to generate the density of neurons in CA1. Mean neuron density was calculated for the left and right hippocampus (side) and for the anterior and posterior regions for each animal. […]

[2] = Body temperature recording during cerebral reperfusion (4-VO ischemic animals); type: in vivo, male Wister rats; conditions: for Temperature recording during cerebral reperfusion: mean ± s.e.m., in °C (unit assumed)
Description: as §1, §2
The animals' body temperature was kept at 37.5±0.5° C. during ischemia and first half hour of cerebral reperfusion when animals were typically stayed in postischemic coma. Temperatures were recorded soon after animals regained consciousness and recorded for up to 4 hours of cerebral reperfusion (Table 1).

[3] = tested on: NADPH-diaphorase activity in CA1 hippocampus; experiment: NADPH-diaphorase histochemistry in postischemic CA1 hippocampus; type: in vivo, male Wister rats; conditions: triple i.p. injection 10 mg/kg during reperfusion
Procedure: as §2
Tissue preparation. Animals were anesthetized with sodium pentobarbital (120 mg/kg) and perfused transcardially with saline containing 0.5% sodium nitrite and 10 U/ml heparin sulfate followed by 4% cold formaldehyde in 0.1 M sodium phosphate buffer (PB, pH 7.2). The brains were further postfixed for 2 hours and stored in a 30% sucrose solution overnight. Fixed brains were sectioned at 30 μm on a sliding microtome. For each animal, the dorsal hippocampus between bregma −2.5 mm and −4.0 mm was sampled. Some sections were […] on slides and stained with cresyl violet to measure neuronal density. Others were used for free floating NADPH-diaphorase histochemistry.
NADPH-Diaphorase histochemistry. […]

[4] = tested on: BV-2 microglia cells; experiment: Nitrite measurement (Griess reaction) in BV-2 microglia cells; type: cell-based, murine; conditions: 6 hours, 0.05-5 mM
Procedure: Nitrite measurement on microylial cell. To measure nitrite level, a NO oxidative metabolite, murine BV-2 cells, were used. […] The cells were grown and maintained in Dulbeccos Modified Eagle medium (“DMEM”, Gibco, Gaithersburg, Md.) supplemented with 10% fetal calf serum and penicillin/streptomycine at 37° C. in a humidified incubator under 5% CO2. BV-2 microglia cells were cultured and grown in 24 well culture plates and treated for 6 hours with 0. 0.05, 0.5, 2, or 5 mM or NAMDA either in the presence or absence of lipopolysaccharide (LPS, 0.2 μg/ml).
After the treatment, 200 μl aliquots of cell supernatant from each well were mixed with 100 μl of Griess reagent (1 % sulphanilamide, 0.1% naphthylethylenediamine dihydrochloride, 2.5% H3PO4) in 96 well microtiter plates. The mixtures were incubated for 10 minutes to form a chromophore and the absorbance was read at 540 nm using a plate reader. The amount of nitrite accumulation from media was determined against a standard curve generated by a known concentration of […]. After removal of the supernatant for the nitrite assay, cells were immediately washed with 0.1M PB, fixed with 4% formaldehyde for 30 minutes, and washed with 0.1M PB for 5 minutes. NADPH-diaphorase histochemical staining was performed as described above. […]

[5] = tested on: BV-2 cells; experiment: Cell number count by tryphan exclusion in BV-2 cells; type: cell-based, murine; conditions: with or without LPS; end of 6 hours treatment; up to 5 mM
[6] = tested on: NADPH-diaphorase activity in BV-2 cells; experiment: NADPH-diaphorase histochemical staining in BV-2 cells; type: cell-based, murine; conditions: 5 mM
Procedure: NADPH-Diaphorase histochemistry. The histochemical staining was performed according to the method described by Vincent, et al., “Histochemical Mapping of Nitric Oxide Synthase in the Rat Brain,” Neuroscience, 46:755-784 (1992), which is hereby incorporated by reference). Sections containing dorsal hippocampus are washed twice in 0.1 M phosphate buffer (“PB”) and then processed for NADPH-diaphorase histochemistry. To establish a temporal profile of NADPH-diaphorase staining during postischemic period, sections were obtained from animals that were perfuse fixed at 12 hours, 24 hours, 48 hours, 72 hours, and 7 days after ischemia. The sections were then incubated for 1 hour at 37° C. with a solution containing 1 mg/ml of NADPH, 0.25 mg/ml of nitro blue tetrazolium (“NBT”), and 0.3% Triton X-100 in 0.1 M PB. The reaction was terminated by the addition of cold 0.1M PB. […]
After the treatment, 200 μl aliquots of cell supernatant from each well were mixed with 100 μl of Griess reagent (1 % sulphanilamide, 0.1% naphthylethylenediamine dihydrochloride, 2.5% H3PO4) in 96 well microtiter plates. The mixtures were incubated for 10 minutes to form a chromophore and the absorbance was read at 540 nm using a plate reader. The amount of nitrite accumulation from media was determined against a standard curve generated by a known concentration of NaNO3. […]

[7] = tested on: CA1 hippocampal neurons; conditions: Cho et al. 1997, cited from earlier work
[8] = background statement; cited from earlier work

Question: Which “CA1 neuronal density / protection of CA1 neurons (of non-ischemic control)” value ([1]; 10 min 4-VO ischemia, 10 mg/kg i.p. at 0, 0.5, 2 h (immediately after reperfusion), measured one week later) does the source give for COc1cc(CCNC(C)=O)ccc1O [NAMDA, N-acetyl-3-O-methyldopamine] here?
Answer: 45%

Question: What about the “Protection of neurons in CA1 hippocampus” value ([1]; 10 min 4-VO ischemia, NAMDA treatment versus saline, one week later, Fisher's PLSD p<0.0001) of the same compound?
Answer: significantly protected neurons in CA1 hippocampus

Question: What about the “Neuron density in CA1 at 24 hours postischemic” value ([1]; 10 min ischemia, NAMDA-ischemic n=3, 24 hours postischemic) of the same compound?
Answer: 18.3±2.2 neurons/10^5 μm^3

Question: And the “Protection of CA1 neurons with delayed administration” value ([1]; administration delayed up to 2 hours after ischemia, one week later)?
Answer: protect CA1 neurons despite delaying the treatment up to 2 hours; also recorded: significant protection of CA1 neurons

Question: What about the “Effect on body temperature versus saline-treated ischemic group” value ([2]; 10 mg/kg triple i.p., any time point up to 4 hours of reperfusion, ANOVA, Newman-Keuls) of the same compound?
Answer: no differences in body temperatures

Question: What about the “Temperature recording during cerebral reperfusion” value ([2]; NC-111 (0, 0.5, 2 h), n = 9, postischemic time 1 hour) of the same compound?
Answer: 37.6 ± 0.2

Question: What about the “Temperature recording during cerebral reperfusion” value ([2]; NC-111 (0, 0.5, 2 h), n = 9, postischemic time 1.5 hour) of the same compound?
Answer: 37.3 ± 0.1

Question: And the “Temperature recording during cerebral reperfusion” value ([2]; NC-111 (0, 0.5, 2 h), n = 9, postischemic time 2 hour)?
Answer: 37.3 ± 0.1

Question: And the “Temperature recording during cerebral reperfusion” value ([2]; NC-111 (0, 0.5, 2 h), n = 9, postischemic time 3 hour)?
Answer: 37.5 ± 0.2

Question: And the “Temperature recording during cerebral reperfusion” value ([2]; NC-111 (0, 0.5, 2 h), n = 9, postischemic time 4 hour)?
Answer: 37.2 ± 0.1

Question: And the “Temperature recording during cerebral reperfusion” value ([2]; NC-111 (1 h) group (injections at 1, 1.5, 3 h), n = 7, postischemic time 0.5 hour)?
Answer: 37.9 ± 0.2

Question: What about the “Temperature recording during cerebral reperfusion” value ([2]; NC-111 (1 h) group, n = 7, postischemic time 1 hour) of the same compound?
Answer: 36.9 ± 0.1

Question: And the “Temperature recording during cerebral reperfusion” value ([2]; NC-111 (1 h) group, n = 7, postischemic time 1.5 hour)?
Answer: 37.0 ± 0.1

Question: What about the “Temperature recording during cerebral reperfusion” value ([2]; NC-111 (1 h) group, n = 7, postischemic time 2 hour) of the same compound?
Answer: 37.4 ± 0.1

Question: What about the “Temperature recording during cerebral reperfusion” value ([2]; NC-111 (1 h) group, n = 7, postischemic time 3 hour) of the same compound?
Answer: 37.5 ± 0.2

Question: And the “Temperature recording during cerebral reperfusion” value ([2]; NC-111 (1 h) group, n = 7, postischemic time 4 hour)?
Answer: 37.5 ± 0.3

Question: And the “Temperature recording during cerebral reperfusion” value ([2]; NC-111 (2 hr) group (injections at 2, 2.5, 4 h), n = 6, postischemic time 0.5 hour)?
Answer: 38.3 ± 0.2

Question: What about the “Temperature recording during cerebral reperfusion” value ([2]; NC-111 (2 hr) group, n = 6, postischemic time 1 hour) of the same compound?
Answer: 36.8 ± 0.3

Question: What about the “Temperature recording during cerebral reperfusion” value ([2]; NC-111 (2 hr) group, n = 6, postischemic time 1.5 hour) of the same compound?
Answer: 37.2 ± 0.4

Question: What about the “Temperature recording during cerebral reperfusion” value ([2]; NC-111 (2 hr) group, n = 6, postischemic time 2 hour) of the same compound?
Answer: 37.4 ± 0.2

Question: What about the “Temperature recording during cerebral reperfusion” value ([2]; NC-111 (2 hr) group, n = 6, postischemic time 3 hour) of the same compound?
Answer: 37.3 ± 0.2

Question: What about the “Temperature recording during cerebral reperfusion” value ([2]; NC-111 (2 hr) group, n = 6, postischemic time 4 hour) of the same compound?
Answer: 37.9 ± 0.3

Question: And the “Temperature recording during cerebral reperfusion” value ([2]; NC-111 (injections at 0, 0.5, 2 h of reperfusion), n = 9, postischemic time 0.5 hour)?
Answer: 37.7 ± 0.2

Question: What about the “Ischemia-induced NADPH-diaphorase staining in CA1” value ([3]; 24 hours postischemic) of the same compound?
Answer: markedly reduced

Question: What about the “Ischemia-induced NADPH-diaphorase staining in CA1” value ([3]; 48 hours after ischemia) of the same compound?
Answer: attenuation of the staining was persisted

Question: And the “Nitrite accumulation in cell supernatant” value ([4]; absence of LPS)?
Answer: did not alter nitrite accumulation

Question: And the “Nitrite accumulation in cell supernatant” value ([4]; presence of LPS 0.2 μg/ml, ANOVA p<0.001)?
Answer: significantly reduced nitrite accumulation in a dose-dependent manner

Question: And the “Total number of cells (cell viability)” value [5]?
Answer: did not affect the total number of cells

Question: And the “Baseline NADPH-diaphorase staining intensity” value ([6]; absence of LPS)?
Answer: not affected

Question: What about the “LPS-induced NADPH-diaphorase activity (staining)” value ([6]; presence of LPS) of the same compound?
Answer: attenuated

Question: Which “Protection of CA1 neurons” value ([7]; administration starting immediately after / during reperfusion, 10 min transient forebrain ischemia) does the source give for COc1ccc2[nH]cc(CCNC(C)=O)c2c1 [melatonin, Melatonin] here?
Answer: significantly protect CA1 neurons; also recorded: protects the CA1 hippocampal neurons

Question: What about the “Protection of CA1 neurons with delayed administration” value ([7]; delay of one hour) of the same compound?
Answer: did not offer significant protection

Question: What about the “Protection of the neurons with delayed administration” value ([7]; delay of one to two hours in administration) of the same compound?
Answer: significantly decreased protection of the neurons

Question: And the “Solubility in aqueous media” value [8]?
Answer: insoluble in aqueous media
